From patent publication US20160304547A1, “MACROLIDE COMPOUND” (PULIKE BIOLOGICAL ENGINEERING, INC, priority 2013, published 2016)
≈ marks a conversion by molar mass, not a printed value.

Legend:
[1] = system: Streptococcus pneumoniae CMCC 31203; test: In vivo antibacterial test, survival of infected BALB/c mice; settings: CMCC31203, sc, 168 h; BALB/c mice infected i.p. with Streptococcus pneumoniae; 5 mg per kg s.c. via neck for 3 consecutive days; deaths recorded until the seventh day; read-out: Animal survival rate
[2] = system: Streptococcus equines CVCC556; test: MIC by mini broth dilution technique (in vitro susceptibility); type: cell-based; settings: Streptococcus equines CVCC556; broth dilution; read-out: MIC values Streptococcus equines CVCC556
Description: (§1) in vitro tests of susceptibility of the compounds according to the present disclosure against bacterial strains commonly used in laboratories. In accordance with the Performance Standards for Antimicrobial Disk Susceptibility Tests: Approved Standard published by the US National Committee for Clinical Laboratory Standards, the antibactetial activities of compounds prepared according to examples 5 to 187 were tested. The MICs (minimum inhibitory concentration) of the medicaments prepared according to the examples on the following bacterial strains were measured through mini broth dilution technique. Staphylococcus aureus CVCC26003, Streptococcus equines CVCC556. Actinobacillus pleuropneumoniae CVCC262, Haemophilus parasuis, and Pasteurella multocida CVCC399, which were purchased from the Control Institute of Veterinary Bioproducts and Pharmaceuticals, China. Liquid culture medium: […] Solid culture medium: […] The strains were taken out of a regrigerator at −20° C. to be revived, and were spreaded by streaking on the solid culture medium with an inoculating loop. The inoculated culture medium was cultured at 35° C. in a constant temperature incubator for 20 h. Monoclonal antibodies were selected from a well-grown culture plate and streaked on the solid culture medium. The inoculated culture medium was cultured at 35° C. in the constant temperature incubator for 20 h. […] A 96-well plate was used, and 100 μl of DMSO was added into each of wells 2 to 11, and 200 μl of ready-prepared medicament solution was added into the 1st well, 100 μl of the medicament solution was extracted from the 1st well and added into the 2nd well. Double dilution was performed until the 11th well, thereby forming 11 gradients. In this case, compound of parent plate was prepared. 3 μl of double diluted medicament solution was extracted with a 12-channel pipettor and added into wells 1-11 of a new disposable 96-well culture plate. The 12th well thereof is a controll well. For each medicament, there are two adjacent rows which are parallel. The transferred compound plate was reserved for later use. […] The dilution ratio was recorded, and the bacterial liquid for the tests was diluted according to the recorded dilution ratio. Subsequently, the bacterial suspension and the liquid culture medium were diluted in the proportion of 1:200. The diluted solution was reserved for later use.

[3] = system: Actinobacillus pleuropneumoniae CVCC262; test: as above; type: cell-based; settings: Actinobacillus pleuropneumoniae CVCC262; broth dilution; read-out: MIC values Actinobacillus pleuropneumoniae CVCC262
Description: as §1

[4] = system: Pasteurella multocida CVCC399; test: as above; type: cell-based; settings: Pasteurella multocida CVCC399; broth dilution; read-out: MIC values Pasteurella multocida CVCC399
Description: as §1

Haemophilus parasuis = test: as above; type: cell-based; settings: Glaesserella parasuis; Haemophilus parasuis; broth dilution; read-out: MIC values Haemophilus parasuis
Description: as §1

[5] = system: Staphylococcus aureus CVCC26003; test: as above; type: cell-based; settings: Staphylococcus aureus CVCC26003; broth dilution; read-out: MIC values Staphylococcus aureus CVCC26003
Description: in vitro tests of susceptibility of the compounds according to the present disclosure against bacterial strains commonly used in laboratories. In accordance with the Performance Standards for Antimicrobial Disk Susceptibility Tests: Approved Standard published by the US National Committee for Clinical Laboratory Standards, the antibactetial activities of compounds prepared according to examples 5 to 187 were tested. The MICs (minimum inhibitory concentration) of the medicaments prepared according to the examples on the following bacterial strains were measured through mini broth dilution technique. Staphylococcus aureus CVCC26003, Streptococcus equines CVCC556. Actinobacillus pleuropneumoniae CVCC262, Haemophilus parasuis, and Pasteurella multocida CVCC399, which were purchased from the Control Institute of Veterinary Bioproducts and Pharmaceuticals, China. Liquid culture medium: CAMHB. […] Solid culture medium: NINA prepared according to the specification of the final product. The strains were taken out of a regrigerator at −20° C. to be revived, and were spreaded by streaking on the solid culture medium with an inoculating loop. The inoculated culture medium was cultured at 35° C. in a constant temperature incubator for 20 h. Monoclonal antibodies were selected from a well-grown culture plate and streaked on the solid culture medium. The inoculated culture medium was cultured at 35° C. in the constant temperature incubator for 20 h. […] A 96-well plate was used, and 100 μl of DMSO was added into each of wells 2 to 11, and 200 μl of ready-prepared medicament solution was added into the 1st well, 100 μl of the medicament solution was extracted from the 1st well and added into the 2nd well. Double dilution was performed until the 11th well, thereby forming 11 gradients. In this case, compound of parent plate was prepared. 3 μl of double diluted medicament solution was extracted with a 12-channel pipettor and added into wells 1-11 of a new disposable 96-well culture plate. The 12th well thereof is a controll well. For each medicament, there are two adjacent rows which are parallel. The transferred compound plate was reserved for later use. […] The dilution ratio was recorded, and the bacterial liquid for the tests was diluted according to the recorded dilution ratio. Subsequently, the bacterial suspension and the liquid culture medium were diluted in the proportion of 1:200. The diluted solution was reserved for later use.

Row | SMILES | responders at 5 mg/kg [1] | MIC [2] | MIC [3] | MIC [4] | MIC (Haemophilus parasuis) | MIC [5]
1 | CCCCNC[C@]1(O)[C@H](C)OC(O[C@@H]2[C@@H](C)[C@@H](O[C@@H]3O[C@H](C)C[C@H](N(C)C)[C@H]3O)[C@](C)(O)C[C@@H](C)NC[C@@H](C)[C@H](O)[C@](C)(O)[C@H](CC)OC(=O)[C@@H]2C)C[C@@]1(C)OC (some centres unmarked) [syzx-2] | 80% | 2 µg/mL (≈ 2.44 µM) | 1 µg/mL (≈ 1.22 µM) | 2 µg/mL (≈ 2.44 µM) | 2 µg/mL (≈ 2.44 µM) | 4 µg/mL (≈ 4.88 µM)
2 | CC[C@@H]1OC(=O)[C@H](C)[C@H](OC2C[C@@](C)(OC)[C@](O)(CN(CC)CC)[C@H](C)O2)[C@@H](C)[C@@H](O[C@@H]2O[C@H](C)C[C@H](N(C)C)[C@H]2O)[C@](C)(O)C[C@@H](C)NC[C@@H](C)[C@H](O)[C@]1(C)O (stereo partly drawn) [syzx-3, (2R,3S,4R,5S,8R,10R,11R,12S,13S,14R)-13-[(2,6-dideoxy-3-C -methyl-3-O-methyl-4-C-[(diethylamino)methyl]-α-L-ribopyranosyl)oxy]-2-ethyl-3,4,10-trihydroxy-3,5,8,10,12,14-hexamethyl-11-[[3,4,6-trideoxy-3-(dimethylamino)-β-D-xylo-hexopyranosy]oxy]-1-oxa-7-azacyclopentadecan-15-one] | 70% | 0.125 µg/mL (≈ 0.152 µM) | 1 µg/mL (≈ 1.22 µM) | 0.125 µg/mL (≈ 0.152 µM) | 0.125 µg/mL (≈ 0.152 µM) | 0.5 µg/mL (≈ 0.61 µM)
3 | CC[C@@H]1OC(=O)[C@H](C)[C@H](OC2C[C@@](C)(OC)[C@](O)(CN3CCOCC3)[C@H](C)O2)[C@@H](C)[C@@H](O[C@@H]2O[C@H](C)C[C@H](N(C)C)[C@H]2O)[C@](C)(O)C[C@@H](C)NC[C@@H](C)[C@H](O)[C@]1(C)O (stereo partly drawn) [syzx-5, (2R,3S,4R,5S,8R,10R,11R,12S,13S,14R)-13-[(2,6-dideoxy-3-C-methyl-3-O-methyl-4-C-[(morpholinyl)methyl]-α-L-ribopyranosyl)oxy]-2-ethyl-3,4,10-trihydroxy-3,5,8,10,12,14-hexamethyl-11-[[3,4,6-trideoxy-3-(dimethylamino)-β-D-xylo-hexopyranosy]oxy]-1-oxa-7-azacyclopentadecan-15-one] | 70% | ≤ 0.25 µg/mL | 16 µg/mL (≈ 19.2 µM) | 0.5 µg/mL (≈ 0.599 µM) | 0.5 µg/mL (≈ 0.599 µM) | 0.5 µg/mL (≈ 0.599 µM)
4 | CC[C@@H]1OC(=O)[C@H](C)[C@H](OC2C[C@@](C)(OC)[C@](O)(CNC3CC3)[C@H](C)O2)[C@@H](C)[C@@H](O[C@@H]2O[C@H](C)C[C@H](N(C)C)[C@H]2O)[C@](C)(O)C[C@@H](C)NC[C@@H](C)[C@H](O)[C@]1(C)O (stereo partly drawn) [syzx-6, (2R3S,4R5S,8R,10R,11R,12S,13S,14R)-13-[(2,6-dideoxy-3-C-methyl-3-O-methyl-4-C-[(cyclopropylamino)methyl]-α-L-ribopyranosyl)oxy]-2-ethyl-3,4,10-trihydroxy-3,5,8,10,12,14-hexamethyl-11-[[3,4,6-trideoxy-3-(dimethylamino)-β-D-xylo-hexopyranosy]oxy]-1-oso-7-azacyclopentadecan-15-one] | 80% | 0.125 µg/mL (≈ 0.155 µM) | 0.125 µg/mL (≈ 0.155 µM) | 0.125 µg/mL (≈ 0.155 µM) | 0.125 µg/mL (≈ 0.155 µM) | 0.125 µg/mL (≈ 0.155 µM)
5 | CCNC[C@]1(O)[C@H](C)OC(O[C@@H]2[C@@H](C)[C@@H](O[C@@H]3O[C@H](C)C[C@H](N(C)C)[C@H]3O)[C@](C)(O)C[C@@H](C)NC[C@@H](C)[C@H](O)[C@](C)(O)[C@H](CC)OC(=O)[C@@H]2C)C[C@@]1(C)OC (stereo partly drawn) [syzx-10, (2R,3S,4R,5S,8R,10R,11R,12S,13S,14R)-13-[(2,6-dideoxy-3-C-methyl-3-O-methyl-4-C-[(ethylamino)methyl]-α-L-ribopyranosyl)oxy]-2-ethyl-3,4,10-trihydroxy-3,5,8,10,12,14-hexamethyl-11-[[3,4,6-trideoxy-3-(dimethylamino)-β-D-xylo-hexopyranosy]oxy]-1-oxa-7-azacycopentadecan-15-one] | 90% | 0.5 µg/mL (≈ 0.631 µM) | 0.5 µg/mL (≈ 0.631 µM) | ≤ 0.25 µg/mL | 1 µg/mL (≈ 1.26 µM) | 0.5 µg/mL (≈ 0.631 µM)
6 | CC[C@@H]1OC(=O)[C@H](C)[C@H](OC2C[C@@](C)(OC)[C@](O)(CNC(C)C)[C@H](C)O2)[C@@H](C)[C@@H](O[C@@H]2O[C@H](C)C[C@H](N(C)C)[C@H]2O)[C@](C)(O)C[C@@H](C)NC[C@@H](C)[C@H](O)[C@]1(C)O (some centres unmarked) [syzx-11] | 70% | ≤ 0.25 µg/mL | 0.5 µg/mL (≈ 0.62 µM) | ≤ 0.25 µg/mL | 0.5 µg/mL (≈ 0.62 µM) | ≤ 0.25 µg/mL
7 | CC[C@@H]1OC(=O)[C@H](C)[C@H](OC2C[C@@](C)(OC)[C@](O)(CNCC(C)C)[C@H](C)O2)[C@@H](C)[C@@H](O[C@@H]2O[C@H](C)C[C@H](N(C)C)[C@H]2O)[C@](C)(O)C[C@@H](C)NC[C@@H](C)[C@H](O)[C@]1(C)O (stereo partly drawn) [syzx-12, (2R,3S,4R,5S,8R,10R,11R,12S,13S,14R)-13-[(2,6-dideoxy-3-C-methyl-3-O-methyl-4-C-[(isobutylamino)methyl]-α-L-ribopyranosyl)oxy]-2-ethyl-3,4,10-trihydroxy-3,5,8,10,12,14-hexamethyl-11-[[3,4,6-trideoxy-3-(dimethylamino)-β-D-xylo-hexopyranosy]oxy]-1-oxa-7-azacyclopentadecan-15-one] | 70% | ≤ 0.25 µg/mL | ≤ 0.25 µg/mL | ≤ 0.25 µg/mL | ≤ 0.25 µg/mL | ≤ 0.25 µg/mL
8 | CC[C@@H]1OC(=O)[C@H](C)[C@H](OC2C[C@@](C)(OC)[C@](O)(CNC(C)(C)C)[C@H](C)O2)[C@@H](C)[C@@H](O[C@@H]2O[C@H](C)C[C@H](N(C)C)[C@H]2O)[C@](C)(O)C[C@@H](C)NC[C@@H](C)[C@H](O)[C@]1(C)O (some centres unmarked) [syzx-14] | 70% | ≤ 0.25 µg/mL | 0.5 µg/mL (≈ 0.61 µM) | 0.25 µg/mL (≈ 0.305 µM) | ≤ 0.25 µg/mL | ≤ 0.25 µg/mL
9 | CC[C@@H]1OC(=O)[C@H](C)[C@H](OC2C[C@@](C)(OC)[C@](O)(CNCCOC)[C@H](C)O2)[C@@H](C)[C@@H](O[C@@H]2O[C@H](C)C[C@H](N(C)C)[C@H]2O)[C@](C)(O)C[C@@H](C)NC[C@@H](C)[C@H](O)[C@]1(C)O (stereo partly drawn) [syzx-25, (2R,3S,4R,5S,8R,10R,11R,12S,13S,14R)-13-[(2,6-dideoxy-3-C-methyl-3-O-methyl-4-C-[(2-methoxyethyl)amino-methyl]-α-L-ribopyranosyl)oxy]-2-ethyl-3,4,10-trihydroxy-3,5,8,10,12,14-hexamethyl-11-[[3,4,6-trideoxy-3-(dimethylamino)-β-D-xylo-hexopyranosy]oxy]-1-oxa-7-azacyclopentadecan-15-one] |  | ≤ 0.25 µg/mL | 16 µg/mL (≈ 19.5 µM) | ≤ 0.25 µg/mL | ≤ 0.25 µg/mL | ≤ 0.25 µg/mL
